Test results: PubChem BioAssay AID651963 (The Scripps Research Institute Molecular Screening Center, 2012)

Test system: C. elegans Q35::YFP muscle, polyQ foci count microscopy
Test: PubChem AID 651963
Conditions: at 10 µM; active compounds read low

Q: `COc1ccc(/C=C/C=C2C(=O)NC(=O)NC2=O)cc1` was tested. Which relative foci did it give?
A: 33.8%
